pIC50: −log10 of the molar value.
Key:
[1] = tested on: high-glucose HepG2 cells; experiment: high-glucose (insulin-resistant) HepG2 model: glucose, TC, TG; type: cell-based, human; details: for hypoglycemic effect (glucose level) compared between concentrations: 80 µg/mL, superior to acarbose positive control 5 µg/mL
Experimental: (§1) HepG2 cells at 10 to 40 generations were configured at a concentration of 4 × 10^5/mL. The cells suspension 100 µL was inoculated into a culture plate with DMEM (10 mL) containing glucose 4.5 g/L, 10% FBS, penicillin (1000 U/mL), and streptomycin ([…]), and cultivated in a 37 °C, 5% CO2 incubator.
When the cells were increased to about 80%, insulin at a concentration of 10^−5 mmol/L was treated for 24 h to induce the formation of insulin-resistant cells. […] After the treatment of 24 h with different samples, the glucose, TC, and TG content in the HepG2 cell supernatant was measured with glucose, TC, and TG assay kits.

[2] = tested on: streptozocin-induced diabetic mice; set-up: method as in PMID 27687881; details: cited from earlier work
[3] = target: T1, α-glucosidase (Saccharomyces cerevisiae, UniProt P53341); experiment: fluorescence quenching of α-glucosidase (Stern–Volmer); type: binding
Description: The mixture was scanned using fluorescence spectroscopy (SpectraMax i3x, Molecular Devices, LLC., San Jose, CA, USA). The excitation wavelength was set at 280 nm, and the emission wavelength at 300–500 nm, with excitation and emission slit widths of 5 nm. Then, the following Stern–Volmer dynamic collision quenching equations were applied to calculate the fluorescence quenching parameters, including the quenching constants (KSV), quenching rate constant (Kq), binding constant (Ka), and binding site number (n). The equations are described below:(2) F0/F=1+KSV[Q]=1+Kqτ0[Q] (3) lgF0−F/F=lgKa+nlg[Q]

[4] = target: T1, α-glucosidase; experiment: FT-IR secondary structure of α-glucosidase (amide I curve fitting); details: astragalin 100 µg/mL
Description: The secondary conformation of α-glucosidase (1 U/mL) with or without sample treatment were detected with a Fourier transform infrared spectrometer (FT-IR) (VERTEX 7.0, BRUKER Co., Ltd., Bremen, Germany), by fitting the infrared amide type I curve (1600–1700 cm^−1).

[5] = tested on: HepG2 cells; experiment: HepG2 cell survival rate (CCK-8); type: cell-based, human; details: 0–200 µg/mL, 24 h
Experimental: as §1
Each sample was added to a 96-well plate with HepG2 cells and incubated in a 37 °C, 5% CO2 incubator for 24 h. After washing twice with PBS, the CCK-8 solution 100 µL was added, and incubated for another 4 h. The absorbance at 450 nm was measured using a Microplate reader (Bio TekGen5, BioTech Instruments, Co., Ltd., Winooski, VT, USA). The cells’ survival rates were calculated based on the formula as shown below:Cell survival rate (%) = A samples/A black control × 100%(5)

[6] = tested on: AMPK signaling pathway (p-AMPK, ACC, GLUT4); experiment: Western blotting of AMPK pathway proteins in high-glucose HepG2 cells; type: cell-based, human
Experimental: Protein samples of 20 µg were separated by sodium dodecyl sulfate polyacrylamide gel electrophoresis in the Bio-Rad electrophoresis apparatus (Liuyi Biotechnology Co., Ltd., Beijing, China), and then transferred to polyvinylidene fluoride membranes. The electrophoretic proteins were sealed with 5% skimmed milk at room temperature for 1 h, and the membranes were incubated overnight with primary antibodies, including AMPK, phospho-AMPK (p-AMPK), acetyl CoA carboxylase (ACC, EC 6.4.1.2), and glucose transporter 4 (GLUT4) at 4 °C. After washing the membrane with phosphate-buffered saline tween-20, the membranes were incubated with secondary antibodies at room temperature for 1 h.

[7] = tested on: Müller cells; details: high glucose; cited from earlier work
[8] = target: T1, α-glucosidase; details: reported compound; cited from earlier work
[9] = different concentrations, high-glucose HepG2 cells

T1 sequence (P53341 whole entry): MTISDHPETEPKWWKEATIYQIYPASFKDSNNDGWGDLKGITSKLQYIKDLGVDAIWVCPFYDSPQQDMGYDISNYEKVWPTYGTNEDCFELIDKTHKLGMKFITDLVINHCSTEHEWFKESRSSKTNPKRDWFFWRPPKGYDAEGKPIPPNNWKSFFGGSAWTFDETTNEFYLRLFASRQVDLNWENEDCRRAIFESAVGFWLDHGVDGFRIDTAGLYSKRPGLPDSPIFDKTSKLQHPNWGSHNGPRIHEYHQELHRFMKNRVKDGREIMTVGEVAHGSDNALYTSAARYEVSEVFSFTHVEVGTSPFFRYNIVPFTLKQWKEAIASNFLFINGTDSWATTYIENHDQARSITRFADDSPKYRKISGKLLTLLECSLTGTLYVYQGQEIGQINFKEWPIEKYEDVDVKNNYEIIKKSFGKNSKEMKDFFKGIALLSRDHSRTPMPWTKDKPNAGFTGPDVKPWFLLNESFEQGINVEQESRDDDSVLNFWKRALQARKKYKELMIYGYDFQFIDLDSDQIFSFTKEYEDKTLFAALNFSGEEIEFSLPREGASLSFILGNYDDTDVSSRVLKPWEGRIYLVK

SMILES: O=c1c(O[C@@H]2O[C@H](CO)[C@@H](O)[C@H](O)[C@H]2O)c(-c2ccc(O)cc2)oc2cc(O)cc(O)c12 [astragalin, kaempferol-3-O-β-D-glucopyranoside]
- hypoglycemic effect (glucose level) compared between concentrations [1]: the activity was the strongest
- hypoglycemic effect (glucose level) compared between concentrations ([1]; listed as Astragalin): best hypoglycemic effect
- glucose level in the cells ([1]; 20, 80, and 200 µg/mL, 24 h, insulin-induced high-glucose HepG2): reduced the glucose level in the cells
- TC level [1, 9]: reduced the levels of TC
- TG level [1, 9]: reduced the levels of TC and TG
- hypoglycemic effects in diabetic mice [2]: improved the glucose tolerance and reduced the level of glucose
- KSV (quenching constant) ([3]; 298 K): 9.093 ×10^3 Lmol^−1
- n (binding site number) ([3]; 298 K): 1.238
- KSV (quenching constant) ([3]; 304 K): 7.903 ×10^3 Lmol^−1
- n (binding site number) ([3]; 304 K): 1.1905
- KSV (quenching constant) ([3]; 310 K): 7.061 ×10^3 Lmol^−1
- n (binding site number) ([3]; 310 K): 0.8446
- maximum fluorescence emission wavelength of α-glucosidase with astragalin ([3]; free enzyme around 346 nm, excitation 280 nm, 298 K): 349 nm
- Kq values ([3]; under three temperature conditions, compared with maximum diffusion collision quenching constant): higher than 2.0 × 10^10 Lmol^−1 s^−1
- β-turn content of α-glucosidase with astragalin ([4]; without astragalin 11.72%): 19.30%
- β-sheet content of α-glucosidase with astragalin ([4]; without astragalin 11.94%): 4.71%
- random coil content of α-glucosidase with astragalin ([4]; without astragalin 21.08%): 38.79%
- CCK-8 cell survival [5]: within the safe range
- GLUT4 protein expression level ([6]; 20 µg/mL): significantly increased
- ACC protein expression level ([6]; 80 µg/mL): significantly down-regulated
- p-AMPK protein expression level ([6]; 80 and 200 µg/mL): up-regulated
- vascular endothelial growth factor over-expression [7]: decreased the over-expression

SMILES: COc1cc(OC)c2c(ccc3cc(OC)c(O)cc32)c1 [batatasin I]
- pIC50 [8]: 2.59
